We go through twelve compounds from ChEMBL document CHEMBL3351724, “Human α1-adrenoceptor subtype selectivity of substituted homobivalent 4-aminoquinolines” (Bioorg Med Chem, 2014).

Assay [1] has as its target T1, Alpha-1A adrenergic receptor (Homo sapiens, UniProt P35348).
T1 sequence (P35348 whole entry): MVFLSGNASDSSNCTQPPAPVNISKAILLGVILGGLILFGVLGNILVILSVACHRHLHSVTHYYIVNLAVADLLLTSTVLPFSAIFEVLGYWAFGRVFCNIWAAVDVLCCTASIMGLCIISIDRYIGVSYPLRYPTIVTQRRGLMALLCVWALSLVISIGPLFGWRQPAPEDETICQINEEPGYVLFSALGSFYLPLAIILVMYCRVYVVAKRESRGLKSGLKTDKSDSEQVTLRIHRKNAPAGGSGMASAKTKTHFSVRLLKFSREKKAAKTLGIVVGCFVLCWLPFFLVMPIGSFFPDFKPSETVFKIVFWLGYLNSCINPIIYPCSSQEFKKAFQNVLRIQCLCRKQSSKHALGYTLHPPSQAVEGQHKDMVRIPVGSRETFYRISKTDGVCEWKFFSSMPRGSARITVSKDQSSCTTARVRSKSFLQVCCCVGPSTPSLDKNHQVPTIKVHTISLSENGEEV
Kind of assay: Displacement of [3H]-prazosin from human alpha1A adrenergic receptor transfected in COS1 cells. The class given is cell-based, COS-1.

Assay [2] addresses T2, Alpha-1B adrenergic receptor (Homo sapiens, UniProt P35368).
T2 sequence (P35368 whole entry): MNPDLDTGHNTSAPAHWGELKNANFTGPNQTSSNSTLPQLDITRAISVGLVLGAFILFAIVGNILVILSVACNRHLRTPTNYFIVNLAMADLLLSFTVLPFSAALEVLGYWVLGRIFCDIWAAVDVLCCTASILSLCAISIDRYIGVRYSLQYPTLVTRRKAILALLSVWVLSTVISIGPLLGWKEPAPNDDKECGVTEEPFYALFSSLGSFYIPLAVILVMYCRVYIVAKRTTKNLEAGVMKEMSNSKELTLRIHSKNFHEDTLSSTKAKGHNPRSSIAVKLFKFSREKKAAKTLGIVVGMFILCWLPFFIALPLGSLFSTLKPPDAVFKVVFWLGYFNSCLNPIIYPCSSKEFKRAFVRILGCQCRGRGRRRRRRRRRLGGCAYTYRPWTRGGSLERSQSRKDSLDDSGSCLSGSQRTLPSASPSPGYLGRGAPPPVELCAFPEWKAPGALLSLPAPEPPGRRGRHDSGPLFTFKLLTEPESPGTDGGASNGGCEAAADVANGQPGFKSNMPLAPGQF
The assay is described as follows: Displacement of [3H]-prazosin from human alpha1B adrenergic receptor transfected in COS1 cells. The class given is cell-based, COS-1. For orientation: Loss of bound radioactivity is the signal in a displacement assay; it reports binding, not function.

Assay [3] deals with T3, Alpha-1D adrenergic receptor (Homo sapiens, UniProt P25100).
T3 sequence (P25100 whole entry): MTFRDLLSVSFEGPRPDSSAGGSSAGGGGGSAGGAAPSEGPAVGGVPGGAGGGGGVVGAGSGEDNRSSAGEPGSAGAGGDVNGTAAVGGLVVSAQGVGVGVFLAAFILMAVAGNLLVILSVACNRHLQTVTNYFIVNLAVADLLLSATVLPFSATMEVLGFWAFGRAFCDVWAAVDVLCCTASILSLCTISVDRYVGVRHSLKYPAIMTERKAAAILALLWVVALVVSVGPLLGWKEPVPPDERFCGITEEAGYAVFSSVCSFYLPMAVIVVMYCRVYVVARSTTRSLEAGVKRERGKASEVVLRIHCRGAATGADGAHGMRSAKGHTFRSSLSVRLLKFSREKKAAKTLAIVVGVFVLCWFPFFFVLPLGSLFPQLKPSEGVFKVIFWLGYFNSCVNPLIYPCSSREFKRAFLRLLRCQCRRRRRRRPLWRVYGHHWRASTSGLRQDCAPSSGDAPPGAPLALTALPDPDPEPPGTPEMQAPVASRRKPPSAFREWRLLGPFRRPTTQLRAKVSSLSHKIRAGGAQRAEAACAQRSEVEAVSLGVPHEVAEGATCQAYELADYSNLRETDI
Kind of assay: Displacement of [3H]-prazosin from human alpha1D adrenergic receptor transfected in COS1 cells. Format: cell-based, COS-1.

The target in assay [4] is T1, Alpha-1A adrenergic receptor. The assay is described as follows: Binding affinity to human alpha1A adrenergic receptor transfected in COS1 cells assessed as compound required to occupy 50% of receptor. Format: cell-based, COS-1.
The target of assay [5] is T4, 5-hydroxytryptamine receptor 1A (Homo sapiens, UniProt P08908).
T4 sequence (P08908 whole entry): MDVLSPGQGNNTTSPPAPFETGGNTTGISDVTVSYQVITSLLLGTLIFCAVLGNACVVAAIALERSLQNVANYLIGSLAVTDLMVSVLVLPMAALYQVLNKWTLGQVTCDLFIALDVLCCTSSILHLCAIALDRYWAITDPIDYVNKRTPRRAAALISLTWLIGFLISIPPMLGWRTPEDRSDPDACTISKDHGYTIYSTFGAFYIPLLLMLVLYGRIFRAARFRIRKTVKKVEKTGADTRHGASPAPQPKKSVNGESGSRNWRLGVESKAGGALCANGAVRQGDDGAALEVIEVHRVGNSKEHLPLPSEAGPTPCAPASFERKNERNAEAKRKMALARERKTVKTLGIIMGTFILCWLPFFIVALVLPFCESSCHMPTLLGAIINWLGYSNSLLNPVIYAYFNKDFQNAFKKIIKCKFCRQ
Kind of assay: Binding affinity to human 5HT1A receptor transfected in COS1 cells assessed as compound required to occupy 50% of receptor. The class given is cell-based, COS-1.

In assay [6] the target is T4, 5-hydroxytryptamine receptor 1A. The assay is described as follows: Displacement of [3H]8-OH-DPAT from human 5HT1A receptor transfected in COS1 cells. The class given is cell-based, COS-1.
Assay [7] deals with T2, Alpha-1B adrenergic receptor. Kind of assay: Binding affinity to human alpha1B adrenergic receptor transfected in COS1 cells assessed as compound required to occupy 50% of receptor. The class given is cell-based, COS-1.
In assay [8] the target is T3, Alpha-1D adrenergic receptor. Kind of assay: Binding affinity to human alpha1D adrenergic receptor transfected in COS1 cells assessed as compound required to occupy 50% of receptor. The class given is cell-based, COS-1.
The species entered for assay [9] is Homo sapiens. The assay is described as follows: Selectivity ratio of Ki for human 5HT1A receptor to Ki for human alpha1A adrenergic receptor.
The species entered for assay [10] is Homo sapiens. Kind of assay: Selectivity ratio of Ki for human alpha1B adrenergic receptor to Ki for human alpha1A adrenergic receptor.
Assay [11] is filed under the species Homo sapiens. Kind of assay: Selectivity ratio of Ki for human alpha1D adrenergic receptor to Ki for human alpha1A adrenergic receptor.

As usually defined, the Ki is the equilibrium dissociation constant of an inhibitor or competing ligand from its target. In the case of `COc1cccc2c(NCCCCCCCNc3ccnc4c(OC)cccc34)ccnc12`, the Ki in assay [1] is 0.0741 µM; in assay [2], 0.155 µM; in [3], 0.759 µM; in assay [4], 0.074 µM; in assay [5] it was 0.603 µM; in [6], 0.603 µM. Further, the Ki stood at 0.155 µM in assay [7] and 0.759 µM in [8].
Turning to `c1ccc2c(NCCCCCCCNc3ccnc4ccccc34)ccnc2c1`, the inhibition constant Ki was 0.126 µM in assay [1]; 0.148 µM in assay [2]; 0.309 µM in assay [3]; 0.126 µM in assay [4]; 0.832 µM in [5]; 0.832 µM in assay [6]. For the same compound, the inhibitory constant (Ki) worked out at 0.148 µM in assay [7] and 0.309 µM in assay [8].
As for `c1ccc2c(NCCNc3ccnc4ccccc34)ccnc2c1`, the Ki in assay [1] was 0.0263 µM; in [2], 0.0282 µM; in assay [3] it was 0.331 µM; in assay [4], 0.026 µM; in [5], 2.29 µM; in [6], 2.29 µM. For the same compound, the Ki in [7] amounted to 0.028 µM; in assay [8], 0.331 µM.
For `Cc1ccc2nccc(NCCCCCCCNc3ccnc4ccc(C)cc34)c2c1`, the Ki in [1] was 0.617 µM; in assay [2], 0.151 µM; in [3], 0.479 µM; in [4], 0.617 µM; in assay [5], 1.1 µM; in [6], 1.1 µM. In addition, the results for the Ki in assay [7] and in assay [8] were 0.151 µM and 0.479 µM, respectively.
With `Cc1ccc2c(NCCCCCCCNc3ccnc4cc(C)ccc34)ccnc2c1`, the Ki in assay [1] was 0.112 µM; in [2], 0.0513 µM; in assay [3], 0.49 µM; in assay [4], 0.112 µM; in [5], 1.26 µM; in assay [6], 1.26 µM. For the same compound, the results for the Ki in [7] and in assay [8] were 0.051 µM and 0.49 µM, respectively.
On to `COc1ccc2nccc(NCCCCCCCNc3ccnc4ccc(OC)cc34)c2c1`, for which the Ki was 0.316 µM in assay [1]; 0.148 µM in assay [2]; 0.372 µM in assay [3]; 0.316 µM in assay [4]; 1.38 µM in assay [5]; 1.38 µM in assay [6]. Besides, the Ki turned out to be 0.148 µM in assay [7] and 0.372 µM in assay [8].
On to `Cc1cccc2c(NCCNc3ccnc4c(C)cccc34)ccnc12`, for which the Ki in assay [1] was 0.00741 µM; in assay [2], 0.0398 µM; in [3], 0.479 µM; in assay [4], 0.007 µM; in assay [5] it was 1.17 µM; in assay [6], 1.17 µM. Besides, the Ki turned out to be 0.04 µM in assay [7] and 0.479 µM in assay [8]. Also, the Ratio Ki in the assay filed under Homo sapiens [9] amounted to 168; in the assay listed under Homo sapiens [10] it was 6; in the assay filed under Homo sapiens [11] it was 68.
Consider `COc1ccc2c(NCCCCCCCNc3ccnc4cc(OC)ccc34)ccnc2c1`, for which the Ki was 0.257 µM in assay [1]; 0.0347 µM in [2]; 0.229 µM in [3]; 0.257 µM in [4]; 2.82 µM in assay [5]; 2.82 µM in [6]. Besides, the results for the Ki in [7] and in assay [8] were 0.035 µM and 0.229 µM, respectively.
In the case of `Cc1ccc2c(NCCNc3ccnc4cc(C)ccc34)ccnc2c1`, the Ki in assay [1] is 0.12 µM; in [2], 0.0479 µM; in assay [3], 0.204 µM; in [4], 0.12 µM; in assay [5], 3.47 µM; in assay [6], 3.47 µM. Besides, the figures for the Ki in assay [7] and in [8] were 0.048 µM and 0.204 µM, respectively.
On to `COc1ccc2c(NCCNc3ccnc4cc(OC)ccc34)ccnc2c1`, for which the Ki in [1] is 0.0692 µM; in assay [2], 0.0501 µM; in assay [3] it was 0.214 µM; in assay [4] it was 0.069 µM; in assay [5], 0.891 µM; in assay [6] it was 0.891 µM. For the same compound, the values for the Ki in [7] and in assay [8] were 0.05 µM and 0.214 µM, respectively.
For the compound `Cc1ccc2nccc(NCCNc3ccnc4ccc(C)cc34)c2c1`, the Ki was 0.135 µM in [1]; 0.0191 µM in assay [2]; 0.49 µM in assay [3]; 0.135 µM in [4]; 0.617 µM in assay [5]; 0.617 µM in [6]. Further, the Ki in [7] was 0.019 µM; in assay [8], 0.49 µM.
Consider `COc1cccc2c(NCCNc3ccnc4c(OC)cccc34)ccnc12`, for which the Ki in assay [1] is 0.195 µM; in assay [2], 0.324 µM; in [3], 2 µM; in assay [4] it was 0.195 µM; in assay [5] it was 3.09 µM; in assay [6], 3.09 µM. Also, the Ki in assay [7] was 0.324 µM; in assay [8], 2 µM.
